Legend:
Type in all cases: biochemical
[1] = target: LRRK2 (full-length, from BAC-transgenic mouse brain) (Mus musculus, UniProt Q5S006); assay: TR-FRET kinase assay with PLK-peptide
[2] = target: LRRK2 (human, G2019S mutant) (Homo sapiens, UniProt Q5S007, G2019S); assay: TR-FRET kinase assay with PLK-peptide, […] h preincubation
LRRK2 (human, wild-type) = LRRK2 (human, wild-type) (Homo sapiens, UniProt Q5S007); assay: as above
LRRK2 (human, wild-type), sequence (Q5S007 970-2527): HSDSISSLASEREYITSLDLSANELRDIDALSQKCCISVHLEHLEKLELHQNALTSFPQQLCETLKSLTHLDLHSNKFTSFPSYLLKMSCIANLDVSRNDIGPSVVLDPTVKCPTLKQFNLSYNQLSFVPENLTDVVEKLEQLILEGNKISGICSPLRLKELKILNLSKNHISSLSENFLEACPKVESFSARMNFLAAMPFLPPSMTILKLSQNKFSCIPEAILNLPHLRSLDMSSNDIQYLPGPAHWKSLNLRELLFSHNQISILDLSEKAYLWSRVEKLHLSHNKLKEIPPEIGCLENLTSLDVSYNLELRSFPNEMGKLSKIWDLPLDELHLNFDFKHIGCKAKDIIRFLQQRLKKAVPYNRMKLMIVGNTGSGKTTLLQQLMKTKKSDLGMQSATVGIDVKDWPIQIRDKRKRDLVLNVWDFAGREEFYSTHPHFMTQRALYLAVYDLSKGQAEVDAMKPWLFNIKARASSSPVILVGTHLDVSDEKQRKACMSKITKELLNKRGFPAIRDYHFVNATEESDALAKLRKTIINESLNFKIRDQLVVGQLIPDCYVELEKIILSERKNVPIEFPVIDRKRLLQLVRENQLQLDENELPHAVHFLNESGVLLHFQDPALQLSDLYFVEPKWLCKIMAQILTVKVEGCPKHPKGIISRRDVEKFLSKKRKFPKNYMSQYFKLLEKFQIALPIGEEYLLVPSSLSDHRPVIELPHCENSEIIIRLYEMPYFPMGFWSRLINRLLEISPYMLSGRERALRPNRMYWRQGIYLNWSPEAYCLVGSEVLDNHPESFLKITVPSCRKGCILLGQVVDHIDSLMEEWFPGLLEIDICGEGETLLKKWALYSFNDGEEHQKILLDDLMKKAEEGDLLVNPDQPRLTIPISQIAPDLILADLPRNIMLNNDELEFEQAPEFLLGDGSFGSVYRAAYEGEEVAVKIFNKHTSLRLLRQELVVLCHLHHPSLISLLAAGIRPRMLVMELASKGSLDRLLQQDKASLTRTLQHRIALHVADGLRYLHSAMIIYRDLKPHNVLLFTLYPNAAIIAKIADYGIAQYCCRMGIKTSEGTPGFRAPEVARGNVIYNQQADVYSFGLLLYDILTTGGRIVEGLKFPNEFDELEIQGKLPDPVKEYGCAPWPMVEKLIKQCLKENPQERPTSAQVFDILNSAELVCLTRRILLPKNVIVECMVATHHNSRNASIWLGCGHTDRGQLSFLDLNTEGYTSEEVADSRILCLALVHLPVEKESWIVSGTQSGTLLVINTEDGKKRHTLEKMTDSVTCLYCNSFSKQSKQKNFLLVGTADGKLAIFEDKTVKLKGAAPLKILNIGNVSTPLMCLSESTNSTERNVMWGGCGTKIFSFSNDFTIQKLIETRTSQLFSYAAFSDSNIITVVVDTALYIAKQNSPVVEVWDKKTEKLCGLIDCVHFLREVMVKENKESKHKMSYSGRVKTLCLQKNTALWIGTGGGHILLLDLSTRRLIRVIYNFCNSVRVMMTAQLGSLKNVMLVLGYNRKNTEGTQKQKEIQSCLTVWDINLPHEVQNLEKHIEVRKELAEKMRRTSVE

LRRK2 (human, G2019S mutant), sequence (Q5S007 970-2527 G2019S): as the sequence (Q5S007 970-2527) above, with G1050S counted along it
LRRK2 (full-length, from BAC-transgenic mouse brain), sequence (Q5S006 whole entry): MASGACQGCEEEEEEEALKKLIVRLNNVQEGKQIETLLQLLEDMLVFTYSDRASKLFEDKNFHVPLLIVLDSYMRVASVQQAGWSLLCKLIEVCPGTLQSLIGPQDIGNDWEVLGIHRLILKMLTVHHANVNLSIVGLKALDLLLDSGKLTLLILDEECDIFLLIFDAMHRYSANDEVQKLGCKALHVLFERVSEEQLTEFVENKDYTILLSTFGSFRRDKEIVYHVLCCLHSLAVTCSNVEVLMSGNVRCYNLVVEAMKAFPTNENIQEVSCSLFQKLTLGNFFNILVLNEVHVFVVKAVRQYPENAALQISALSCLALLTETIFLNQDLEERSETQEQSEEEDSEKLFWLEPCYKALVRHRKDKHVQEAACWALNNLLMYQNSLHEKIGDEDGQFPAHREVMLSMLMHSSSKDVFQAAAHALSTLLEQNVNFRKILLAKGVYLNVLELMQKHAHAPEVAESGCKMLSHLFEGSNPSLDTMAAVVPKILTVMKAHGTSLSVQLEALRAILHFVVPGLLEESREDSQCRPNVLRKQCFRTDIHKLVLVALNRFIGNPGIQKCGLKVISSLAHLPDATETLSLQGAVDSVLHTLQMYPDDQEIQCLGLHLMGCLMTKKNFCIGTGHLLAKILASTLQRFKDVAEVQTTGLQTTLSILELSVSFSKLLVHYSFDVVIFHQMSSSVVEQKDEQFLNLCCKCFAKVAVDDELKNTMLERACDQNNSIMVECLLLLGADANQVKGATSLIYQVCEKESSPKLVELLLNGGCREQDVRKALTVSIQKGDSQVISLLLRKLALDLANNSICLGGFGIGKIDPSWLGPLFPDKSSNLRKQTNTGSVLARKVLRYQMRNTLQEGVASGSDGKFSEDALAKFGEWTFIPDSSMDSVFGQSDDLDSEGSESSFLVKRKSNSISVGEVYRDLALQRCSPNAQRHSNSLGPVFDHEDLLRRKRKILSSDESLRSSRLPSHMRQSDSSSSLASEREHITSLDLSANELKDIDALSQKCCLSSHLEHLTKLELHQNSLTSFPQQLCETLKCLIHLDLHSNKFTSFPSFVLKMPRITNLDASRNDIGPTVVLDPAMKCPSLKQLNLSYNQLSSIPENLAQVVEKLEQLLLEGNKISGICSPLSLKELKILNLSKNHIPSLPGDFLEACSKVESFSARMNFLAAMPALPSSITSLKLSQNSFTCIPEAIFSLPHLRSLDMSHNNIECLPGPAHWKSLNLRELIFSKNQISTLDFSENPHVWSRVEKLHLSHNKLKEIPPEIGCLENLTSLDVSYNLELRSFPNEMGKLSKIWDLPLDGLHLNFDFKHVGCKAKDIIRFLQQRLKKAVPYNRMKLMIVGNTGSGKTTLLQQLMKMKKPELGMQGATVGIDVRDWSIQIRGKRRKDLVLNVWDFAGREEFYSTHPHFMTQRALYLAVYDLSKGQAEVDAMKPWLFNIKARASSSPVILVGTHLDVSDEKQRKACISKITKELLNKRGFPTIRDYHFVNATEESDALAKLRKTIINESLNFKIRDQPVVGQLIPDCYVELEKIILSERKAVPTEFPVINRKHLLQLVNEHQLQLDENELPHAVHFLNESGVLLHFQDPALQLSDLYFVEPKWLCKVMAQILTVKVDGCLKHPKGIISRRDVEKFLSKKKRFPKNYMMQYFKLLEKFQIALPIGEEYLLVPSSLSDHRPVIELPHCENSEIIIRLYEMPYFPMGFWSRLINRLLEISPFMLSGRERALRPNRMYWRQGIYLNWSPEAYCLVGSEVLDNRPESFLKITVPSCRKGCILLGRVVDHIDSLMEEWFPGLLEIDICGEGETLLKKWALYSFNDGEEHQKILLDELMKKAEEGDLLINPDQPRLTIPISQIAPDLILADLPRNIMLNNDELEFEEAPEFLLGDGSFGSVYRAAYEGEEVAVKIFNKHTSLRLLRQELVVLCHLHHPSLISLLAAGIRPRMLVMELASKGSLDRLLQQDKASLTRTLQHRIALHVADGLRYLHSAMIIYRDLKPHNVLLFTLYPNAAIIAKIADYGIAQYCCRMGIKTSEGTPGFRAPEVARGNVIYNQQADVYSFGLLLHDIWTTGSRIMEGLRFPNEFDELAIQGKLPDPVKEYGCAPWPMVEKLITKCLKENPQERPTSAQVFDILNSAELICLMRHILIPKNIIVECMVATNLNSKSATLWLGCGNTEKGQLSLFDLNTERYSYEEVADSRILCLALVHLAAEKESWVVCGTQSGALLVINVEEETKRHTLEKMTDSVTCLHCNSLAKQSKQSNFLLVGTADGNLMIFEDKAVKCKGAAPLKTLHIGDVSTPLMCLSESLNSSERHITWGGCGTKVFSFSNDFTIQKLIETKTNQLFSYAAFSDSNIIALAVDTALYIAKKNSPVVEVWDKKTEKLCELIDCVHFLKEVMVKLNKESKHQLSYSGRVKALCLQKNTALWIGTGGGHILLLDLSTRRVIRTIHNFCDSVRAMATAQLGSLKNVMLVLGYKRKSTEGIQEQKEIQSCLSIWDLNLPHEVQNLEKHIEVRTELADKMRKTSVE

## LDN-22684
[1]
  IC50: 5.4 ± 0.8 µM
[2]
  IC50: 6.9 ± 1 µM
LRRK2 (human, wild-type)
  IC50: 6.1 ± 0.8 µM
